Data on twelve compounds can be found in ChEMBL document CHEMBL1156214, “Identification of GNE-477, a potent and efficacious dual PI3K/mTOR inhibitor” (Bioorg Med Chem Lett, 2010).

Series [1] is described as follows: Antiproliferative activity against human MCF7.1 cells after 3 days by celltiter-glo luminescence assay. Type of series: functional, cell-based. To be noted: MCF7.1, 72 h. (Cellular ATP, detected with luciferase, serves as a proxy for viable cell number.)
Series [2] addresses Serine/threonine-protein kinase mTOR (Homo sapiens, UniProt P42345). Kind of series: Inhibition of human recombinant mTOR assessed as reduction in GFP-4EBP1 phosphorylation after 30 mins by FRET assay.
Series [3] can be described thus: Clearance in rat at 1 mg/kg, iv or 5 mg/kg, po. As to conditions: in vivo. The class given is ADME, organism-based.
Series [4] in a line: Hepatic clearance in rat liver microsomes. The class given is ADME, Microsome.
Series [5] in a line: Clearance in nu/nu mouse at 1 mg/kg, iv or 5 mg/kg, po. As to conditions: in vivo. The class given is ADME, organism-based.
A short description of series [6]: Oral bioavailability in rat at 5 mg/kg. The class given is ADME, organism-based. As to conditions: in vivo.
The nature of series [7]: Plasma protein binding in rat at 1 mg/kg, iv or 5 mg/kg, po. The class given is ADME, organism-based. To be noted: read-out: PPB (converted).
The next series deals with Rattus norvegicus. Kind of series: Unbound clearance in rat at 1 mg/kg, iv or 5 mg/kg, po. Type of series: ADME, organism-based. To be noted: in vivo.
A short description of series [8]: Clearance in Beagle dog at 1 mg/kg, iv or 2 mg/kg, po. Type of series: ADME, organism-based, Canis lupus familiaris. To be noted: in vivo.
A short description of series [9]: Oral bioavailability in nu/nu mouse at 5 mg/kg. Type of series: ADME, organism-based. As to conditions: in vivo.
A short description of series [10]: Oral bioavailability in Beagle dog at 2 mg/kg. Type of series: ADME, organism-based, Canis lupus familiaris. As to conditions: in vivo.
Series [11] deals with PC-3. As to the kind of experiment: Antitumor activity against human PC3 cells xenografted in nu/nu mouse assessed as tumor growth inhibition at 1 mg/kg, po QD measured after 14 days relative to control. The class given is functional. Set-up: scale not given: the % may be the effect or the level left. In general terms: Xenograft models place foreign cells or tissue in a host animal.

The test system of series [12] is PC-3. Kind of series: Antitumor activity against human PC3 cells xenografted in nu/nu mouse assessed as tumor growth inhibition at 5 mg/kg, po QD measured after 14 days relative to control. Type of series: functional. The arrangement: scale not given: the % may be the effect or the level left.
The subject of series [13] is PC-3. Kind of series: Antitumor activity against human PC3 cells xenografted in nu/nu mouse assessed as tumor growth inhibition at 10 mg/kg, po QD measured after 14 days relative to control. The arrangement: scale not given: the % may be the effect or the level left. The class given is functional.
Series [14] concerns PC-3. Kind of series: Antitumor activity against human PC3 cells xenografted in nu/nu mouse assessed as tumor growth inhibition at 20 mg/kg, po QD measured after 14 days relative to control. The class given is functional. Set-up: scale not given: the % may be the effect or the level left.
In series [15] the test system is PC-3. As to the kind of experiment: Antitumor activity against human PC3 cells xenografted in nu/nu mouse assessed as tumor incidence at 1 mg/kg, po QD measured after 14 days. Set-up: dose 1 mg/kg. The class given is functional, organism-based.
Series [16] concerns PC-3. As to the kind of experiment: Antitumor activity against human PC3 cells xenografted in nu/nu mouse assessed as tumor incidence at 10 mg/kg, po QD measured after 14 days. Type of series: functional, organism-based. The arrangement: dose 10 mg/kg.
The subject of series [17] is PC-3. As to the kind of experiment: Antiproliferative activity against human PC3 cells after 3 days by celltiter-glo luminescence assay. Type of series: functional, cell-based. To be noted: PC-3, 72 h.
For the next series, the system named is Mus musculus. Kind of series: Toxicity in nu/nu mouse assessed as body weight loss at 1 to 20 mg/kg, po QD measured after 14 days. Set-up: dose 1-20 mg/kg, route oral. As to conditions: in vivo, 336 h. Type of series: organism-based.
Series [18] is described as follows: Thermodynamic solubility at pH 6.5. The class given is physicochemical. To be noted: buffer.
The target of series [19] is Phosphatidylinositol 4,5-bisphosphate 3-kinase catalytic subunit alpha isoform (Homo sapiens, UniProt P42336).
Description: Inhibition of PI3Kalpha assessed as reduction in 3,4,5-inositoltriphosphate accumulation after 30 mins by fluorescence polarization assay

Converted amounts (≈) assume the structure as drawn. The source made the active and inactive calls. The calls are words filed in the database; no cut-off is given here. Bounds are passed on as bounds.

Chain of Phosphatidylinositol 4,5-bisphosphate 3-kinase catalytic subunit alpha isoform (P42336 whole entry, canonical isoform): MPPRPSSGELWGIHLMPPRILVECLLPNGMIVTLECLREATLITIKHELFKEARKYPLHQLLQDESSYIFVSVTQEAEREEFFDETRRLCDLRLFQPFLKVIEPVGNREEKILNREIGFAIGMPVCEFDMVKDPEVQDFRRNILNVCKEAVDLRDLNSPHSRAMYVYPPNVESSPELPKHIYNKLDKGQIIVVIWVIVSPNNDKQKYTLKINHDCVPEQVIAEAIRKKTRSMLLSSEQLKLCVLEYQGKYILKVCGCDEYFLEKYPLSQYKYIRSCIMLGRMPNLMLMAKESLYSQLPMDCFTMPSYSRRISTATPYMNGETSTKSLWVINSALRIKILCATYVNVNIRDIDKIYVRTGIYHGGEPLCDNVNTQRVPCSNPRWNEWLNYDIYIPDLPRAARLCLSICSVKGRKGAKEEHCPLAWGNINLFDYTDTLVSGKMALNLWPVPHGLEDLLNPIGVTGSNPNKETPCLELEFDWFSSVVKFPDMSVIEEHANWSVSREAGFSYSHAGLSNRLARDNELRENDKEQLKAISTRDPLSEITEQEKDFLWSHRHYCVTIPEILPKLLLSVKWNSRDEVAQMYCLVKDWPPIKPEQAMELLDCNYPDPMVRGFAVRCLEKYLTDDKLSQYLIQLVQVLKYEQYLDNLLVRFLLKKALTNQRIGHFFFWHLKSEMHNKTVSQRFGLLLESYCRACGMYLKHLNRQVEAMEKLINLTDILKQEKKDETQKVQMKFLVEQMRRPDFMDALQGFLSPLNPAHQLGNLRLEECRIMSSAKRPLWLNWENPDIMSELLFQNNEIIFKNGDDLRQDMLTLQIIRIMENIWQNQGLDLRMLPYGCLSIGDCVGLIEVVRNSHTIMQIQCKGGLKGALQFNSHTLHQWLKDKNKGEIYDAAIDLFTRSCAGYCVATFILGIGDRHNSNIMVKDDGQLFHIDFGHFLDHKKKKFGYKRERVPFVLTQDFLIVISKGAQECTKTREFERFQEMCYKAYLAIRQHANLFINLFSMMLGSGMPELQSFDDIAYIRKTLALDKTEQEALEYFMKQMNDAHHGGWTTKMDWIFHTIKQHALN

Regarding `CS(=O)(=O)N1CCN(Cc2cc3nc(-c4cccc5[nH]ncc45)nc(N4CCOCC4)c3s2)CC1` [PICTILISIB], the concentration for a half-maximal effect (EC50) (commonly the concentration at which the effect is half-maximal) in series [1] is 720 nM.

Take `Cc1c(CN2CCN(S(C)(=O)=O)CC2)sc2c(N3CCOCC3)nc(-c3cnc(N)nc3)nc12`: in [2], the inhibitory constant (Ki) (as a rule, a dissociation constant, usually derived from enzyme kinetics or from competition with a known ligand) is 21 nM. Besides, the clearance in series [3] amounted to 13 mL/min/kg; in series [5], 15 mL/min/kg; in series [8], 5 mL/min/kg. Moreover, the figures for the concentration giving a half-maximal response (EC50) (in series [1]; in the series with PC-3 [17]) were 143 nM and 174 nM, respectively. Further, the CLhep predicted in [4] was 15 mL/min/kg. Further, the values for the bioavailability in series [6], in series [9] and in series [10] were 52%, 98% and 90%, respectively. In [7], the fraction unbound is 0.25. The Unbound clearance with Rattus norvegicus was 52 mL/min/kg. For the same compound, the Activity was 33% in the series on PC-3 [11]; 43% in the series with PC-3 [12]; 60% with PC-3 [13]; 86% in the series on PC-3 [14]; less than 10% in the series on Mus musculus. Further, the result with PC-3 [15] and in the series on PC-3 [16] was inactive.

On to `CS(=O)(=O)c1cccc(-c2cc3nc(-c4cnc(N)nc4)nc(N4CCOCC4)c3s2)c1`, for which the Ki in [2] stood at 5 nM. Moreover, the clearance in series [3] is 56 mL/min/kg. Moreover, the EC50 in series [1] came to 40 nM. For the same compound, the thermodynamic solubility (usually the concentration in solution at equilibrium with solid) in [18] came out at 1 µg/mL (≈ 2.13 µM). In addition, in [4], the CLhep predicted is 7 mL/min/kg. Besides, in series [6], the bioavailability (commonly dose-corrected exposure relative to a reference, in per cent) came out at 3%. Besides, in [7], the fraction unbound is 0.07. The Unbound clearance with Rattus norvegicus was determined as 800 mL/min/kg. The IC50 (commonly the concentration needed to halve the response being measured) in series [19] is less than 1 nM.

Take `Nc1ncc(-c2nc(N3CCOCC3)c3sccc3n2)cn1`: the Ki in [2] amounted to 42 nM. The response in series [1] was half-maximal at 430 nM (EC50). The solubility (thermodynamic) in series [18] is 170 µg/mL (≈ 541 µM). This compound also displayed an IC50 in series [19] of 5 nM.

`CS(=O)(=O)N1CCN(Cc2cc3nc(-c4cnc(N)nc4)nc(N4CCOCC4)c3s2)CC1`: in series [2], the inhibition constant (Ki) was found to be 29 nM. Moreover, in series [1], a half-maximal response (EC50) required 130 nM. For the same compound, in [18], the solubility (thermodynamic) turned out to be 62 µg/mL (≈ 126 µM). Further, the CLhep predicted in series [4] was 16 mL/min/kg. For the same compound, the clearance in [5] was 49 mL/min/kg. Besides, the fraction unbound in series [7] was 0.48. This compound also came in with an Unbound clearance in the series with Rattus norvegicus of 50 mL/min/kg. The bioavailability in [9] is 81%; in [10], 35%.

As to `CC(=O)N(C)Cc1sc2c(N3CCOCC3)nc(-c3cnc(N)nc3)nc2c1C`, the Ki in series [2] came to 30 nM. This compound had a clearance in series [3] of 21 mL/min/kg. Further, in [1], the EC50 stood at 164 nM. In addition, the CLhep predicted in series [4] was 20 mL/min/kg. In addition, the fraction unbound in series [7] was 0.49. In addition, the Unbound clearance in the series with Rattus norvegicus amounted to 43 mL/min/kg. In [19], this compound registered a concentration for half-maximal inhibition (IC50) of 3 nM.

As to `Cc1c(-c2cccc(S(C)(=O)=O)c2)sc2c(N3CCOCC3)nc(-c3cnc(N)nc3)nc12`, the inhibition constant (Ki) in [2] was found to be 4 nM. This compound came in with a clearance in series [3] of 13 mL/min/kg. Moreover, it took 68 nM to reach a half-maximal effect in series [1] (EC50). Moreover, the solubility (thermodynamic) in series [18] was determined as 3 µg/mL (≈ 6.22 µM). Further, the CLhep predicted in series [4] is 12 mL/min/kg. The compound further showed a bioavailability in series [6] of 4%. Besides, the fraction unbound in series [7] was 0.03. In the series with Rattus norvegicus, this compound displayed an Unbound clearance of 433 mL/min/kg. Further, the IC50 in series [19] was less than 1 nM.

Turning to `CN(Cc1cc2nc(-c3cnc(N)nc3)nc(N3CCOCC3)c2s1)S(C)(=O)=O`, in [2], the inhibition constant (Ki) came out at 10 nM. In [1], this compound had a concentration giving a half-maximal response (EC50) of 170 nM. This compound registered a thermodynamic solubility in series [18] of 15 µg/mL (≈ 34.4 µM). In [19], this compound had an IC50 of 1 nM.

For the compound `CN1CCN(C(=O)c2cccc(-c3cc4nc(-c5cnc(N)nc5)nc(N5CCOCC5)c4s3)c2)CC1`, in series [2], the inhibitory constant (Ki) was determined as 10 nM. Moreover, in [3], the clearance came to 52 mL/min/kg. In [1], the 50% effective concentration (EC50) worked out at 78 nM. Further, in series [4], the CLhep predicted was 20 mL/min/kg. In addition, the half-inhibitory concentration (IC50) in [19] turned out to be 1 nM.

Turning to `Cc1c(-c2cccc(C(=O)N3CCN(C)CC3)c2)sc2c(N3CCOCC3)nc(-c3cnc(N)nc3)nc12`, the Ki in [2] was found to be 4 nM. In addition, the clearance in [3] turned out to be 15 mL/min/kg. Besides, in [1], the 50% effective concentration (EC50) worked out at 65 nM. In series [4], the CLhep predicted was 38 mL/min/kg. In addition, it took 2 nM to reach half-maximal inhibition in series [19] (IC50).

Turning to `CC(=O)N(C)Cc1cc2nc(-c3cnc(N)nc3)nc(N3CCOCC3)c2s1`, the Ki in [2] came out at 50 nM. This compound also yielded a clearance in [3] of 50 mL/min/kg. This compound also showed a half-maximal effective concentration (EC50) in series [1] of 190 nM. The compound also showed a solubility (thermodynamic) in series [18] of 770 µg/mL (≈ 1930 µM). For the same compound, in series [4], the CLhep predicted is 2 mL/min/kg. The fraction unbound in series [7] was 0.53. The same compound had an Unbound clearance in the series with Rattus norvegicus of 94 mL/min/kg. In series [19], this compound came in with a concentration for half-maximal inhibition (IC50) of 5 nM.

Turning to `CC(C)(N)c1cc2nc(-c3cnc(N)nc3)nc(N3CCOCC3)c2s1`, the Ki in series [2] was 59 nM. Further, a half-maximal effect in series [1] (EC50) was put at 290 nM. Moreover, the solubility (thermodynamic) in [18] was found to be 1100 µg/mL (≈ 2960 µM). The half-inhibitory concentration (IC50) in series [19] is 7 nM.
